Measured values: US20250177532A1, “TEMPERATURE-SENSITIVE HYDROGEL FOR CANCER TREATMENT CAPABLE OF PHOTOTHERMAL THERAPY AND PREPARATION METHOD THEREFOR” (KOREA NATIONAL UNIVERSITY OF TRANSPORTATION …, priority 2022, published 2025)

System: 4T1 cells
Assay: Photothermal effect in vitro: cell viability by WST-1 assay with/without near-infrared irradiation
Details: Triton X 0.1%
Description: To evaluate photothermal effect in in vitro, cells were seeded (1×10^4 cells/well) in 96 well-plate and incubated for 12 h. […] Then, the well was irradiated with near-infrared light for 5 min and incubated again for 24 hours. Then, cell viability was measured using WST-1 assay.

## Triton X
Control of Table 1 (GNS experiment, near-infrared irradiation)
  Cell viability (%): 5.02%
Control of Table 2, NIR irradiated
  Cell viability (%): 10.58%
Control of Table 2, no NIR
  Cell viability (%): 10.23%
